For orientation: Kd means the concentration at which binding is half-saturated. Lower therefore signals tighter binding.

The target in assay [1] is T1, E. coli SC (^EcSC, beta ring, DnaN) (Escherichia coli, UniProt P0A988).
T1 construct: inferred from the pET15b vector and the Ni-NTA/imidazole purification; made in house; host or cells: E. coli BL21 (DE3) pLys
Description: ITC, peptide interaction with E. coli sliding clamp. As to conditions: ITC 30° C., specificity comparison with PCNA. In kind it is binding.

The next assay has as its target Human PCNA (Homo sapiens, UniProt P12004). Description: ITC, peptide interaction with human PCNA. In kind it is binding. As to conditions: ITC 30° C., Human PCNA. On the procedure:
The inventors have compared the affinities of the prototypical P7 SC-binding peptide for the bacterial SC and for the eukaryotic functional homolog “Proliferating Cell Nuclear Antigen” PCNA. The same analysis was performed with the DPD1 peptide that contains a well-described specific PCNA Interacting Peptide (PIP) sequence ([…]).
Background: In ITC the heat of successive injections is recorded.

Sequence of Human PCNA (P12004 whole entry): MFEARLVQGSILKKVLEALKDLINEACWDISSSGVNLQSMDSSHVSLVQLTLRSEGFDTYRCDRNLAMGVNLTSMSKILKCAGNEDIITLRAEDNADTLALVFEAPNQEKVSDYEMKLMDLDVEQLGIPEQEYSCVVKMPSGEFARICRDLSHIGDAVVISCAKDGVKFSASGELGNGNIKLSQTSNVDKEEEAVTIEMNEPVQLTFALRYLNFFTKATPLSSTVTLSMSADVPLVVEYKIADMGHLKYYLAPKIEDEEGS
T1 sequence (P0A988 whole entry): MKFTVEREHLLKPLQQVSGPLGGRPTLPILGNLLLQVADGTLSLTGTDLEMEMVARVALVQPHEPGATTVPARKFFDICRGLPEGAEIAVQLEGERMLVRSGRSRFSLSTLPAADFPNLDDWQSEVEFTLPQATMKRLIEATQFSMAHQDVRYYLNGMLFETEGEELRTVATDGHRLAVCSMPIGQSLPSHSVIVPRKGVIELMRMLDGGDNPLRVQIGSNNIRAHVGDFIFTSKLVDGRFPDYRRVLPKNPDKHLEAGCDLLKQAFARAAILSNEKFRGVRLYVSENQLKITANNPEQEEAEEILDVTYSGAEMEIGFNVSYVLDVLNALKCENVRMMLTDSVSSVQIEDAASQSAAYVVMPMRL

In the case of “peptide that contains a well-described specific PCNA Interacting Peptide (PIP) sequence (QKKITDYF) [DPD1]”, the “interaction with E.coli SC, in words” value in assay [1] is given as “no interaction”. Further, at Human PCNA, binding was put at a Kd of 158 nM and the “ΔH” value is -9.94 kcal/mol.

The values above are taken from patent publication US12098217B2, “Fusion peptides as antimicrobial agents” (CENTRE NATIONAL DE LA RECHERCHE SCIENTIFIQUE, priority 2019, dated 2024).
